Experimental data reported in article PMC5069460, “A novel gene cluster allows preferential utilization of fucosylated milk oligosaccharides in Bifidobacterium longum subsp. longum SC596” (Scientific Reports, 2016).

Experiments:
Assay in all cases: glycan array (CFG Mammalian Glycan Array v5.[…]), anti-GST Alexa […]
Format in all cases: binding
Conditions in all cases: glycan immobilised via spacer; protein 200 ug/ml; pH 7.4, 150 mM NaCl, 2 mM CaCl2, 2 mM MgCl2
[1] = target: T1, BLNG_01257 (SBP of FHMO cluster) (Bifidobacterium longum, UniProt A0A0M3T5K2)
T1 construct: tag kept for detection; homolog of Blon_0343 and Blon_2202
T1 sequence (A0A0M3T5K2 23-460 limits assumed): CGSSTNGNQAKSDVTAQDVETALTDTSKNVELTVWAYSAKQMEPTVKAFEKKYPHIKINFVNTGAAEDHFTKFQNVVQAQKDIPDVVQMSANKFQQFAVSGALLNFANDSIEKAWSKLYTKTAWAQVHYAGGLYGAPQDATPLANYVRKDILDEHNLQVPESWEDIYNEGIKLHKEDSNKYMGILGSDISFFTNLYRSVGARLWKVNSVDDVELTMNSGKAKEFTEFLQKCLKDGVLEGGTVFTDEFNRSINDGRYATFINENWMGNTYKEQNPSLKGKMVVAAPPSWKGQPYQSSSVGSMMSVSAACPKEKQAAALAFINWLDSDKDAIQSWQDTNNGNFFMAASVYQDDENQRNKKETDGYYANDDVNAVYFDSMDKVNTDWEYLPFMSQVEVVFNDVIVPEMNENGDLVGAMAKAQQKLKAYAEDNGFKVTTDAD

[2] = target: T2, BLNG_00160 (SBP of LNB/GNB cluster) (Bifidobacterium longum, UniProt Q8G3W5)
T2 construct: gene BL1638; tag kept for detection
T2 sequence (Q8G3W5 24-438): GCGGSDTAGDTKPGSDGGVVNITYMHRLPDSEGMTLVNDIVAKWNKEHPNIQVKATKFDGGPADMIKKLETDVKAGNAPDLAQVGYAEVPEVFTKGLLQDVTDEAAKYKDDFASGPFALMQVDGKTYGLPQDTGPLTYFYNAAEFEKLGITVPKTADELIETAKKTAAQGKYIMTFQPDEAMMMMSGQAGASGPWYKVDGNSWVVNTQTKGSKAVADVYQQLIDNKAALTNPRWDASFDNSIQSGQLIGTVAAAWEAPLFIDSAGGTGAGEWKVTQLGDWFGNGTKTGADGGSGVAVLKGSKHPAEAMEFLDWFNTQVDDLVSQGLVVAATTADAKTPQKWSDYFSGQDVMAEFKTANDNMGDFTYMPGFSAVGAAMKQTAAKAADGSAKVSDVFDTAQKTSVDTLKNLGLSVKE

[3] = target: T3, BLNG_00936 (SBP) (Bifidobacterium longum, UniProt Q8G848)
T3 construct: gene fruE; tag kept for detection
T3 sequence (Q8G848 23-327 limits assumed): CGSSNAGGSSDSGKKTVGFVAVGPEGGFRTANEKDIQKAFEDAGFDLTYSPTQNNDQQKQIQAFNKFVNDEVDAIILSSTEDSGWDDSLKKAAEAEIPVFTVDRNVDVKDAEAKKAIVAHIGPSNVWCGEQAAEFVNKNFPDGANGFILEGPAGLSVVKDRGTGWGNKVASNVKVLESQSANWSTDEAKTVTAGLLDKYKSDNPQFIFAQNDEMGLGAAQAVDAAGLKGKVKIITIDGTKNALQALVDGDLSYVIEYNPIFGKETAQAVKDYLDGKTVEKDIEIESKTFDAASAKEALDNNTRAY

## C[C@@H]1O[C@@H](O[C@H]2C(O)O[C@H](CO)[C@H](O)[C@@H]2O)[C@@H](O)[C@H](O)[C@@H]1O (stereo partly shown) [Fuca1-2Galβ-Sp8]
[1]
  Average RFU^b: 2161 RFU

## CC(=O)N[C@H]1[C@H](OCCCN)O[C@H](COS(=O)(=O)O)[C@@H](O)[C@@H]1O[C@@H]1O[C@H](CO)[C@H](O)[C@H](O)[C@H]1O [Galβ1-3(6S)GlcNAcβ-Sp8]
[2]
  Average RFU^b: 2646 RFU

## CC(=O)N[C@H]1[C@H](O[C@@H]2[C@H](O)[C@@H](O)[C@H](O[C@H]3[C@H](O)[C@@H](O)[C@H](OCCCN)O[C@@H]3CO)O[C@@H]2CO)O[C@H](CO)[C@H](O)[C@@H]1O[C@@H]1O[C@H](CO)[C@H](O)[C@H](O)[C@H]1O [Galβ1-3GalNAcβ1-4Galβ1-4Glcβ-Sp8]
[2]
  Average RFU^b: 3430 RFU

## CC(=O)N[C@H]1[C@H](OCCCN)O[C@H](CO)[C@@H](O[C@@H]2O[C@H](CO)[C@H](O)[C@H](O[C@@H]3O[C@H](CO)[C@H](O)[C@H](O)[C@H]3O)[C@H]2O)[C@@H]1O [Galβ1-3Galβ1-4GlcNAcβ-Sp8]
[3]
  Average RFU^b: 126 RFU
[2]
  Average RFU^b: 4654 RFU

## CC(=O)N[C@H]1[C@H](OCCN)O[C@H](CO)[C@@H](O[C@@H]2O[C@H](CO)[C@H](O)[C@H](O[C@@H]3O[C@H](CO)[C@@H](O)[C@H](O[C@@H]4O[C@H](CO)[C@H](O)[C@H](O)[C@H]4O)[C@H]3NC(C)=O)[C@H]2O)[C@@H]1O [Galβ1-3GlcNAcβ1-3Galβ1-4GlcNAcβ-Sp0]
[2]
  Average RFU^b: 2029 RFU

## CC(=O)N[C@H]1[C@H](OCCN)O[C@H](CO)[C@@H](O)[C@@H]1O[C@@H]1O[C@H](CO)[C@H](O)[C@H](O)[C@H]1O [Galβ1-3GlcNAcβ-Sp0]
[2]
  Average RFU^b: 969 RFU

## Fuca1-2Galβ1-4Glcβ-Sp0
[1]
  Average RFU^b: 360 RFU

## Galβ1-3GalNAcβ1-3Gal-Sp21
[2]
  Average RFU^b: 2528 RFU

## Galβ1-3GlcNAcβ1-3Galβ1-4Glcβ-Sp10
[2]
  Average RFU^b: 1784 RFU
